Structures are written as SMILES.

The record followed here is US9902713B2, “Neuroprotective compounds and use thereof” (BOARD OF REGENTS OF THE UNIVERSITY OF TEXAS SYSTEM, priority 2013, dated 2018).

Series [1] deals with cultured cortical neurons. As to the kind of experiment: 6-OHDA toxicity in cultured neurons (MTT). Type of series: cell-based. To be noted: 10 μM compound. On the procedure:
A rat model of Parkinson's disease, incuded by 6-hydroxydopamine (6-OHDA) was used to test various compounds As shown in FIGS. 33A-33D, P7C3-S243 protects cultured hippocampal and cortical neurons from 6-OHDA toxicity. […] (FIG. 33B) The average number of hippocampal neurons in the 10 μM P7C3-S243 treatment group was not different from the average number of hippocampal neurons treated with medium alone or with DMSO+Ascorbic acid (one-way ANOVA). […] The average number of cortical neurons in the 10 μM P7C3-S243 treatment group was not different from the average number of cortical neurons treated with medium alone or with DMSO+Ascorbic acid (one-way ANOVA). Experiments were performed two independent times, with 8-12 replicates of each sample both times.

Series [2] has as its system H2122. As to the kind of experiment: Toxicity towards human cancer cell line. The following applies: NCI-H2122. Type of series: cell-based.
For series [3], the system named is blast-injured mice. As to the kind of experiment: Foot slip assay after blast-injury. The following applies: 28 days after injury, daily oral 6 mg/kg/day from 24 hours. It is filed as in vivo. From the text:
Because the cerebellum controls coordination, we next assayed their balance and coordination, using standard procedures (Luong et al., 2011). Mice were trained to cross an 80 cm long beam over 2 days, and then sham or blast-injured on day 3. […] Mice were videotaped during the test, and then analyzed for the number of foot slips by observers blind to treatment group. […] Thus, protective efficacy for cerebellar axonal degeneration after injury by (−)-P7C3-S243 correlated with preservation of motor coordination.
Foot slip assay. We used standard procedures described by Luong et al. (2011) to measure motor balance coordination. During the training period, mice were trained to cross the 80 cm beam to enter a black box with nesting material 3 times a day over 2 consecutive days. Mice were then sham-or blast-Injured on the next day. 24 hrs after injury, daily administration with (−)-P7C3-S243 or vehicle was initiated. Animals were then tested 7 and 28 days after injury. Mice performance was videotaped during the test and foot slips were analyzed by an observer blind to condition and treatment group.

The target of series [4] is (Homo sapiens, UniProt P10635). As to the kind of experiment: Cytochrome P450 inhibition. It is filed as in vitro ADME. To be noted: 3D6.
Sequence of (Homo sapiens, UniProt P10635) (P10635 whole entry): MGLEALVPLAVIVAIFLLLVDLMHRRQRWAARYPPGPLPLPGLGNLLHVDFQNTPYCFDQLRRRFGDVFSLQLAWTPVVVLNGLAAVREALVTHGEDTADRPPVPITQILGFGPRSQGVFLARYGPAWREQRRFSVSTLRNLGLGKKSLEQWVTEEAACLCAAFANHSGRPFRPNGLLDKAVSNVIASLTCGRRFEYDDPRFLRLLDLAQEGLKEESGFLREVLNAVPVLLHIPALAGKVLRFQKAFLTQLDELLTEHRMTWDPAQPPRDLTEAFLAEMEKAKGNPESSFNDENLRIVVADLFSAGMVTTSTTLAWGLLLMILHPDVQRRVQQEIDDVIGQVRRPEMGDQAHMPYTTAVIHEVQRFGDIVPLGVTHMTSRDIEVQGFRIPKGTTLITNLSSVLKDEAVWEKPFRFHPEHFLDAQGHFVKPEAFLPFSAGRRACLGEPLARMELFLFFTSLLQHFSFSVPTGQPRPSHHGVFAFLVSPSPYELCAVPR

For the compound `COc1cccc(NCC(F)Cn2c3ccc(Br)cc3c3cc(Br)ccc32)n1` (racemic) [P7C3-S243, N-(3-(3,6-dibromo-9H-carbazol-9-yl)-2-fluoropropyl)-6-methoxypyridin-2-amine], in series [1], the “average number of neurons vs medium or DMSO+Ascorbic acid” value was “not different”. In addition, the “protection (MTT)” value in series [1] (50 μM and 75 μM 6-OHDA) is “significant protection”.
For orientation: IC50 means the concentration needed to halve the response being measured. A lower IC50 goes with greater potency in that assay. The compound `COc1cccc(NCC(F)Cn2c3ccc(Br)cc3c3cc(Br)ccc32)n1` (single isomer, unassigned; (-)) [(−)-P7C3-S243, (−)-N-(3-(3,6-dibromo-9H-carbazol-9-yl)-2-fluoropropyl)-6-methoxypyridin-2-amine] came in with an IC50 in series [2] above 10 µM. Besides, the “increase in number of foot slips” value in series [3] is “normalized”. Moreover, the “sensitivity of cytochrome P450” value in series [4] is given as “insensitive”.
